# Measurements: PubChem BioAssay AID1645863 (Buhrlage Lab, Dana-Farber Cancer Institute and Novartis …, 2021)
# The source made the active and inactive calls. How the calls were made is not given here.
# Target: Ubiquitin carboxyl-terminal hydrolase 10 (Homo sapiens) (UniProt Q14694)
# Assay: ubiquitin-specific protease 10 DUB inhibitors, concentration-effect, biochemical, verification of primary screen actives (AID 1645863);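 further: potency values describe inhibition of USP10 cleavage of a fluorogenic ubiquitin substrate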
# Conditions: USP10 deubiquitinase enzymatic assay
# Ubiquitin carboxyl-terminal hydrolase 10 (Homo sapiens), sequence (Q14694 whole entry, looked up): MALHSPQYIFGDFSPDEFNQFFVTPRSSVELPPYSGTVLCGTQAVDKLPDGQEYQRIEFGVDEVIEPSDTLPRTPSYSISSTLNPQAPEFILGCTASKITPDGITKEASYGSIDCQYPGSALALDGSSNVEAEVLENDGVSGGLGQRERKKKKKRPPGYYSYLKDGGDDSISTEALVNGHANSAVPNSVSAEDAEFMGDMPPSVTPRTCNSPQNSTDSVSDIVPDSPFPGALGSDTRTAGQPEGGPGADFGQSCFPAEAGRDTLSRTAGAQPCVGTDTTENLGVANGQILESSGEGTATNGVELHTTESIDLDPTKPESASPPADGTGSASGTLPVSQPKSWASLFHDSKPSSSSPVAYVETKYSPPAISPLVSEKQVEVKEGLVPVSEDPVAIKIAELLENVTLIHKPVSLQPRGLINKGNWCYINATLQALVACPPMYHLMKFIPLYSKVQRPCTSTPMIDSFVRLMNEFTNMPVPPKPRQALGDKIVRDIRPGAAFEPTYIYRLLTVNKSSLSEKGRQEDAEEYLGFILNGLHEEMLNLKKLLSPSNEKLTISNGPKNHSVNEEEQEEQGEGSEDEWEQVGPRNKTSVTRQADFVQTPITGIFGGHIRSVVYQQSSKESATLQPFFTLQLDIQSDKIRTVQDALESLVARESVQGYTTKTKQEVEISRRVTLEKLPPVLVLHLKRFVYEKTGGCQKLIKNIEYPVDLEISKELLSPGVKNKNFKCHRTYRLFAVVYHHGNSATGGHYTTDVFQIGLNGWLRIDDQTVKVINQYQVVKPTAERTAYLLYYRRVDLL
row,SMILES,IC50
1,COc1ccc(C(=O)Nc2ccccc2C(=O)NC(Cc2ccc(O)cc2)C(=O)NNC(=O)c2ccccc2Cl)cc1 (configuration not stated),> 40 µM (inactive)
2,CCOc1ccccc1-c1cc(NC(=O)c2cc3ccc4cccnc4c3[nH]2)on1,> 40 µM (inactive)
3,O=C(CC1C(=O)Nc2nc3ccccc3n21)Nc1cccc2ccccc12 (configuration not stated),16.5 µM
4,Cc1cc(-c2ccc(S(=O)(=O)NCc3ccc(Cl)cc3)s2)on1,> 40 µM (inactive)
5,O=C(CSc1ccc(-c2cccc([N+](=O)[O-])c2)nn1)Nc1cccc(F)c1,15.9 µM
6,COc1ccccc1Nc1ncc(C(=O)NCc2ccc(F)cc2)c2ccccc12,> 40 µM (inactive)
7,Cn1c(=O)n([C@@H](Cc2ccccc2)C(=O)N[C@@H](C(=O)O)c2ccc(O)cc2)c(=O)c2ccccc21,> 40 µM (inactive)
8,Cc1ccccc1-c1nc(-c2cn(CC(=O)Nc3ccccc3)cn2)no1,> 40 µM (inactive)
9,COc1ccc(-c2nc(-c3cn(-c4ccccc4)nn3)no2)c(OC)c1,> 40 µM (inactive)
10,COC(=O)c1ccccc1NC(=O)CSc1nnc(CNc2ccc(F)cc2)n1CC1CCCO1 (configuration not stated),> 40 µM (inactive)
11,Cc1sc(NC(=O)Cn2nnc3ccccc32)nc1-c1ccc2c(c1)CCN2C(=O)c1ccccc1F,16.3 µM
12,CN(C)c1ccc(S(=O)(=O)N2CCCCC2)cc1NC(=O)COc1ccccc1,> 40 µM (inactive)
13,Cc1ccc(NC(=O)c2nnn(CC(=O)Nc3cccc(C)c3C)c2N)cc1C,18.1 µM
14,O=C(c1cscn1)N1CCC2(CC1)CC1(CO2)Nc2ccccc2-n2cccc21 (configuration not stated),> 40 µM (inactive)
15,O=C(c1ccc(Cl)cc1)N(c1ccccn1)C1CCCCC1,> 40 µM (inactive)
16,Cc1ccc(Cn2cc(-c3noc(C(=O)Nc4cc(F)ccc4F)n3)nn2)cc1,26.8 µM
17,COC(=O)Nc1cccn(Cc2c(Cl)cccc2Cl)c1=O,> 40 µM (inactive)
18,COc1ccc(-c2cc3c(=O)n(CC(=O)Nc4ccccc4C)ccn3n2)cc1,> 40 µM (inactive)
19,CSC1SCC2C(=O)N(C)C(C(C)C(C)C)C(=O)OCC(NC(=O)c3cnc4ccccc4n3)C(=O)NC(C)C(=O)N(C)C1C(=O)N(C)C(C(C)C(C)C)C(=O)OCC(NC(=O)c1cnc3ccccc3n1)C(=O)NC(C)C(=O)N2C (configuration not stated),19.3 µM
20,CCOc1ccc2c(c1)c(=O)c(C(=O)c1ccccc1)cn2CC(=O)Nc1ccc2c(c1)OCCO2,22.5 µM
21,COc1cc(CC(=O)Nc2ccccc2N2CCOCC2)cc(OC)c1OC,> 40 µM (inactive)
22,O=C1CC(c2ccccc2)n2ncnc2N1 (configuration not stated),> 40 µM (inactive)
23,O=C(c1cccnc1)N1CCCC(Cc2cc(-c3ncc[nH]3)ncn2)C1 (configuration not stated),> 40 µM (inactive)

row,SMILES,IC50
1,NC(=O)C[C@H](NC(=O)[C@H](Cc1ccccc1)n1c(=O)[nH]c2ccccc2c1=O)C(=O)N[C@@H](Cc1ccccc1)C(=O)O,> 40 µM (inactive)
2,O=C(Nc1cc(F)c2nc(N3CCOCC3)ccc2c1)C1CC1,> 40 µM (inactive)
3,CCn1cc2c(n1)c(=O)n(Cc1ccc(C)cc1)c(=O)n2CC(=O)Nc1ccc(F)cc1,> 40 µM (inactive)
4,CCC1OC(O)(C(C)C(O)C(C)C2OC(=O)/C(C)=C/C(C)=CC(C)C(O)C(C)C/C(C)=C/C=C/C2OC)CC(OC(=O)/C=C/C(=O)NC2=C(O)CCC2=O)C1C (configuration not stated),16.6 µM
5,N#Cc1cn2c(nc1-c1ccc(Cl)cc1)nc1ccccc12,19.5 µM
6,O=C(Nc1ccc(Cl)cc1F)c1cc(-c2ccccn2)n[nH]1,> 40 µM (inactive)
7,O=C(NCc1ccc2c(c1)OCO2)c1cc2c(s1)CCC2,13.2 µM
8,CCOc1cc2c(cc1OCC)C(c1cc3c(cc1Br)OCO3)NCC2 (configuration not stated),> 40 µM (inactive)
9,CN(C)[C@@H]1C(=O)C(C(N)=O)=C(O)[C@@]2(O)C(=O)C3=C(O)c4c(O)cccc4[C@@](C)(O)C3[C@H](O)[C@@H]12 (some centres not stated),1.1 µM
10,CC[C@@H](C(=O)[C@@H](C)[C@@H](O)[C@H](C)CCc1ccc(C)c(O)c1C(=O)O)[C@@H]1O[C@](CC)([C@H]2CC[C@](O)(CC)[C@H](C)O2)C[C@@H]1C,12.4 µM
11,CC(C)=CCC/C(C)=C/COc1ccc(/C=C2\C(=O)N(O)[C@@H](C)C(=O)N2O)cc1,14.5 µM
12,O=C(Nc1cccc(Br)c1)c1cc(-c2cccnc2)n[nH]1,19.9 µM
13,C=C1C=C(CCC(=O)O)C(=O)OC1/C=C/C=C/C (configuration not stated),3.91 µM
14,COc1cc(C)cc2c1C(=O)c1c(cc(O)c(Cl)c1O)C2=O,4.38 µM
15,O=S1(=O)CCN(Cc2cccnc2)c2c(F)nc(N3CCOCC3)c(F)c21,> 40 µM (inactive)
16,CCCCNC(=O)CSc1nnc(-c2cc3ccccc3n2C)o1,> 40 µM (inactive)
17,Cc1sc2ccn(C)c(=O)c2c1C(=O)NC1CCCC1,27.5 µM
18,O=C(Nc1ccc2c(c1)OCCO2)C1CCC(Cn2cnc3ccccc3c2=O)CC1 (configuration not stated),> 40 µM (inactive)
19,Cc1nc2c(nnn2C[C@H]2CCCN2C(=O)c2ccc(F)cc2)c(=O)[nH]1,> 40 µM (inactive)
20,COC(=O)c1ccccc1NC(=O)Cn1c(=O)n(CCCC(=O)NCc2ccco2)c(=O)c2ccccc21,13 µM
21,Cc1ccc2cc(CNc3ccccc3)c(=O)n(CC(=O)Nc3ccccc3C)c2c1,> 40 µM (inactive)
22,COc1ccc(S(=O)(=O)NCc2ccc3c(c2)cc(C)n3C)cc1,> 40 µM (inactive)
23,CC(C)=CCc1c2c(c3occ(-c4ccc(O)cc4)c(=O)c3c1O)C=CC(C)(C)O2,> 40 µM (inactive)

row,SMILES,IC50
1,Cc1cc(C(=O)CSc2nc3ccccc3[nH]2)c(C)n1Cc1ccco1,> 40 µM (inactive)
2,Nc1c(-c2nc(-c3ccccc3Cl)no2)nnn1-c1ccc(Cl)cc1,11.5 µM
3,Cc1nc2c(-c3ccc(Cl)cc3)c[nH]n2c(=O)c1Cc1ccccc1,> 12.6 µM (inactive)
4,CC(C)CCCCCCCCCCC(=O)N(C)[C@H](CO)C(=O)N[C@H](C)C(=O)NCC(=O)N(C)C1C(=O)N[C@@H](C)C(=O)NC(C(=O)O)Cc2ccc(O)c(c2)-c2cc1ccc2O (some centres not stated),34.4 µM
5,CCOc1ccc(CC(=O)Nc2ccc(-c3cn4cccnc4n3)cc2)cc1,> 40 µM (inactive)
6,O=C(Nc1ccccc1Cl)c1cc(-c2ccncc2)n[nH]1,> 40 µM (inactive)
7,O=C(O)C1C(C(=O)Nc2ccccc2)C2(c3ccccc3)C(=O)C1(c1ccccc1)C(c1ccccc1)=C2c1ccccc1 (configuration not stated),4.25 µM
8,CCCCN1Cc2sc(NC(=O)Nc3ccccc3C)nc2C1=O,15.6 µM
9,O=C(Nc1cc(F)c2nc(N3CCCC3)ccc2c1)c1ccco1,> 40 µM (inactive)
10,CCc1ccc(NC(=O)Cn2c(=O)n(Cc3ccccc3)c(=O)c3nn(CC)cc32)cc1,> 40 µM (inactive)
11,O=C(NCc1ccc2c(c1)OCO2)c1cn(-c2cccc(Cl)c2)nn1,33 µM
12,O=C1c2c(O)cccc2C2(Oc3cccc4cccc(c34)O2)C2OC12 (configuration not stated),15.5 µM
13,Cc1cc(NC(=O)c2cc(-c3cccnc3)n[nH]2)ccc1Br,28.6 µM
14,COc1cccc(CNc2ccc(-c3nc(-c4ccccc4)no3)nn2)c1,> 40 µM (inactive)
15,CCc1cc(=O)oc2c(C)c(OCC(=O)NCc3ccccn3)ccc12,> 40 µM (inactive)
16,COc1ccccc1-c1nc(-c2cn(-c3cccc(Cl)c3)nn2)no1,25.6 µM
17,O=C(Nc1ccccc1-c1nc2ccccc2[nH]1)c1sc2ccccc2c1Cl,9.23 µM
18,COc1ccc(NC(=O)c2nnc(C(=O)NCCN3CCCCCC3)s2)cc1,> 40 µM (inactive)
19,Cc1cccc(NC(=O)Cn2c(=O)n(-c3cc(C)cc(C)c3)c(=O)c3sccc32)c1,> 40 µM (inactive)
20,Cc1ccc(Cl)cc1NC(=O)Cn1c(=O)n(CCC(=O)NCc2ccco2)c(=O)c2ccccc21,13.1 µM
21,COc1ccc(CC(=O)Nc2c(NCc3ccccc3)c3ccccc3oc2=O)cc1,38.4 µM
22,CNC(=O)c1cc2nc(N(C)C)n(-c3ccc(F)cc3)c2s1,> 40 µM (inactive)
23,Cn1c(=O)[nH]c2nncnc2c1=O,> 40 µM (inactive)

row,SMILES,IC50
1,COc1ccc(Oc2cc3n(c(=O)n2)CCc2cc(OC)c(OC)cc2-3)cc1,> 40 µM (inactive)
2,C[C@H](Cc1cc2c(cc1O)OCO2)[C@@H](C)Cc1cc2c(cc1O)OCO2,19.6 µM
3,Cc1ccc(NC(=O)c2cc(-c3ccccn3)nc3c(Cl)cccc23)nc1,> 40 µM (inactive)
4,CCc1ccc(NC(=O)CSc2nc3nccnc3c(=O)n2Cc2ccc(F)cc2)cc1,> 40 µM (inactive)
5,COc1ccccc1CNC(=O)Cn1cnc2c(-c3ccccc3)csc2c1=O,> 40 µM (inactive)
6,Cc1cccn2c(=O)c3cc(C#N)c(=O)n(-c4cccc(C(F)(F)F)c4)c3nc12,> 40 µM (inactive)
7,COc1ccc(COc2ccc3c(C)c(CC(=O)N4CC[C@@]5(O)CCCC[C@H]5C4)c(=O)oc3c2)cc1,> 40 µM (inactive)
8,CCCCCCCCCC(CCCCCCCCCC(=O)O)O[C@H]1O[C@@H](COC(C)=O)[C@H](O)[C@@H](OC(=O)CC(=O)O)[C@H]1O (some centres not stated),30.6 µM
9,O=C(c1cc2occc2c(Nc2ccc(F)cc2)n1)N1CCN(c2ccccc2)CC1,> 40 µM (inactive)
10,COc1cccc(NC(=O)Cn2c3ccccc3n3c(=O)cc(-c4ccccc4)nc23)c1,14.6 µM
11,O=C(CSc1ccc2nnc(-c3ccc(Cl)cc3)n2n1)N1CCCCC1,> 40 µM (inactive)
12,COc1cc2c(c(OC)c1OC)-c1ccc(NCCc3cccc(F)c3)c(=O)cc1[C@@H](NC(C)=O)CC2,> 40 µM (inactive)
13,O=C(Cn1c(-c2nc(-c3cccc(F)c3)no2)cccc1=O)NCc1ccco1,> 40 µM (inactive)
14,O=C(O)c1ccccc1C(=O)Nc1ccc(SC(C(=O)Nc2cccc(Cl)c2)c2ccccc2)cc1 (configuration not stated),14.2 µM
15,O=C(c1cnccn1)N1CC[C@@H]2CNS(=O)(=O)[C@@H]2CC1,> 40 µM (inactive)
16,O=C1CC(O)C(O)c2cccc(O)c21 (configuration not stated),> 40 µM (inactive)
17,O=C(Nc1ccc(NC(=O)c2ccccc2O)cc1)Nc1ccc(OCc2ccccc2)cc1,> 40 µM (inactive)
18,Cc1ccc2[nH]cc(S(=O)(=O)c3cc(F)cc(F)c3)c(=O)c2c1,> 40 µM (inactive)
19,O=C(Nc1nc(-c2ccccc2)ns1)c1ccc2ncsc2c1,31.6 µM
20,COc1ccc(-c2nc3c(c(=O)c4ccccc4n3C)c(=O)n2Cc2ccco2)cc1,28.7 µM
21,Cc1ccc(S(=O)(=O)N2CCC3(CC2)OC(=O)Nc2ccccc23)cc1,> 40 µM (inactive)
22,O=C(Nc1cccc([N+](=O)[O-])c1)Nc1ccc2snnc2c1,> 40 µM (inactive)
23,Cc1ccc(-c2nc3c(c(SCC(=O)c4ccccc4)n2)COC(C)(C)C3)cc1,> 40 µM (inactive)
